The values that follow come from US8030354B2, “Substituted biphenyl GPR40 modulators” (Amgen Inc., priority 2007, dated 2011).

For experiment [1], the target named is T1, GPR40 (Homo sapiens, UniProt O14842). Nature of the experiment: Cell-based aequorin assay (CHO cells stably expressing GPR40 and aequorin). To be noted: activation of human GPR40, CHO cells, 0.01% HSA. Set-up: expressed in transfected cells; host or cells: CHO cells stably transfected with GPR40 and aequorin. The method in brief:
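CHO cells stably co-expressing GPR40 and aequorin, loaded with coelenterazine (1 ug/mL, 2 h, room temperature) in H/HBSS with 20 mM Hepes and 0.01% fatty acid-free HSA. Serially diluted compounds added; luminescence recorded over 20 s. EC50 from dose-response of maximum relative light units.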

The target in experiment [2] is T1, GPR40. Kind of experiment: Inositol phosphate accumulation assay (A9_GPR40 cells). More on the design: expressed in transfected cells; host or cells: CHO cells stably transfected with GPR40 and aequorin. It counts as cell-based. To be noted: inositol phosphate assay, A9_GPR40 cells, 1 hour; read-out: IP3 EC50. The method in brief: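 [^3H] inositol phosphate accumulation was measured by SPA after 1 h compound exposure at 37° C in HBSS/10 mM LiCl containing HSA, ending with a 20 mM formic acid quench. The GPR40-transfected A9 cells had first been labelled overnight (16 h) with 1 μCi/mL ^3H-inositol.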

A value given as a limit tells only on which side of the number the result lay.

T1 sequence (O14842 whole entry): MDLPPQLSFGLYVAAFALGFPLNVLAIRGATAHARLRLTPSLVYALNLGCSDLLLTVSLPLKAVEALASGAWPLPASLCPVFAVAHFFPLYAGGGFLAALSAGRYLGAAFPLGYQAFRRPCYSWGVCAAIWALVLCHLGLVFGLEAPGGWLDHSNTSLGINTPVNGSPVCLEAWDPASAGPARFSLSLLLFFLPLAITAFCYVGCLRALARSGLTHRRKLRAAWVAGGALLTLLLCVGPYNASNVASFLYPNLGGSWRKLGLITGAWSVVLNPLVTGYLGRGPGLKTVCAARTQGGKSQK

In general, EC50 refers to the concentration needed to bring the measured effect to its halfway point. In the case of `COc1cc(-c2ccc(COc3cccc([C@@H](CC(=O)O)C4CC4)c3F)cc2[C@@H]2CCCC2(C)C)c(F)cn1` (single isomer, unassigned) [Example 83.5], the EC50 on GPR40 [1] was 100 to 1000 nM; at GPR40 [2] it was 10 to 100 nM.
For `COc1ccc(F)c(-c2ccc(COc3cccc(C(CC(=O)O)C4CC4)c3F)cc2C(C)C(C)(C)C)c1` (single isomer, unassigned) [Example 83.6], in that order: 100 to 1000 nM and below 10 nM.
As to `COc1ccc(F)c(-c2ccc(COc3cccc(C(CC(=O)O)C4CC4)c3F)cc2C2CCCCC2(C)C)c1` (single isomer, unassigned) [Example 83.7], the EC50 was 100 to 1000 nM on GPR40 [1] and below 10 nM at GPR40 [2].
Take `COc1ccc(F)c(-c2ccc(COc3cccc(C(CC(=O)O)C4CC4)c3F)cc2C(OC)C(C)(C)C)c1` (single isomer, unassigned) [Example 83.8]: the EC50 on GPR40 [1] was 100 to 1000 nM; at GPR40 [2], below 10 nM.
For `COc1ccc(F)c(-c2ccc(COc3cccc(C(CC(=O)O)C4CC4)c3F)cc2C(F)C(C)(C)C)c1` (single isomer, unassigned) [Example 83.9], in that order: 100 to 1000 nM and below 10 nM.
With `CCO[C@H](c1cc(COc2cccc([C@@H](CC(=O)O)C3CC3)c2F)ccc1-c1ccccc1F)C(C)(C)C` (single isomer, unassigned) [Example 83.10], the EC50 on GPR40 [1] lay in the range of 100 to 1000 nM; on GPR40 [2] it was 10 to 100 nM.
In the case of `COCCO[C@H](c1cc(COc2cccc([C@@H](CC(=O)O)C3CC3)c2F)ccc1-c1ccccc1F)C(C)(C)C` (single isomer, unassigned) [Example 83.11], the results for the EC50 at GPR40 [1] and at GPR40 [2] were 100 to 1000 nM and 10 to 100 nM, respectively.
For `CC1(C)CCC=C1c1cc(COc2cccc([C@@H](CC(=O)O)C3CC3)c2F)ccc1-c1cc(C(F)F)ccc1F` (single isomer, unassigned) [Example 83.12, (3S)-3-Cyclopropyl-3-(3-(((5′-(difluoromethyl)-2-(5,5-dimethyl-1-cyclopenten-1-yl)-2′-fluoro-1,1′-biphenyl-4-yl)methyl)oxy)-2-fluorophenyl)propanoic acid or (3R)-3-cyclopropyl-3-(3-(((5′-(difluoromethyl)-2-(5,5-dimethyl-1-cyclopenten-1-yl)-2′-fluoro-1,1′-biphenyl-4-yl)methyl)oxy)-2-fluorophenyl)propanoic acid] the same measures were 100 to 1000 nM and 10 to 100 nM.
For `COc1ccc(F)c(-c2ccc(COc3cccc(C(CC(=O)O)C4CC4)c3F)cc2C2=CCCC2(C)C)c1` (single isomer, unassigned) [Example 83.14, (3S)-3-Cyclopropyl-3-(3-(((2-(5,5-dimethyl-1-cyclopenten-1-yl)-2′-fluoro-5′-(methyloxy)-1,1′-biphenyl-4-yl)methyl)oxy)-2-fluorophenyl)propanoic acid or (3R)-3-cyclopropyl-3-(3-(((2-(5,5-dimethyl-1-cyclopenten-1-yl)-2′-fluoro-5′-(methyloxy)-1,1′-biphenyl-4-yl)methyl)oxy)-2-fluorophenyl)propanoic acid] the same measures were 100 to 1000 nM and below 10 nM.
On to `COc1ccc(F)c(-c2ccc(COc3cccc(C(CC(=O)O)C4CC4)c3F)cc2CC(C)(C)C)c1` (single isomer, unassigned) [Example 83.15, (3S)-3-Cyclopropyl-3-(3-(((2-(2,2-dimethylpropyl)-2′-fluoro-5′-(methyloxy)-1,1′-biphenyl-4-yl)methyl)oxy)-2-fluorophenyl)propanoic acid or (3R)-3-cyclopropyl-3-(3-(((2-(2,2-dimethylpropyl)-2′-fluoro-5′-(methyloxy)-1,1′-biphenyl-4-yl)methyl)oxy)-2-fluorophenyl)propanoic acid], for which the EC50 at GPR40 [1] is 100 to 1000 nM; at GPR40 [2], below 10 nM.
In the case of `COc1ccc(F)c(-c2cc(F)c(COc3cccc(C(CC(=O)O)C4CC4)c3F)cc2C2=CCCC2(C)C)c1` (single isomer, unassigned) [Example 83.16, (3S)-3-Cyclopropyl-3-(3-(((2-(5,5-dimethyl-1-cyclopenten-1-yl)-2′,5-difluoro-5′-(methyloxy)-1,1′-biphenyl-4-yl)methyl)oxy)-2-fluorophenyl)propanoic acid or (3R)-3-cyclopropyl-3-(3-(((2-(5,5-dimethyl-1-cyclopenten-1-yl)-2′,5-difluoro-5′-(methyloxy)-1,1′-biphenyl-4-yl)methyl)oxy)-2-fluorophenyl)propanoic acid], the figures for the 50% effective concentration (EC50) on GPR40 [1] and at GPR40 [2] were 100 to 1000 nM and 10 to 100 nM, respectively.
With `COc1ccc(F)c(-c2c(F)cc(COc3cccc([C@@H](CC(=O)O)C4CC4)c3F)cc2[C@H]2CCCC2(C)C)c1` (single isomer, unassigned) [Example 83.20], the EC50 was 100 to 1000 nM on GPR40 [1] and below 10 nM on GPR40 [2].
For `COc1cc(-c2ccc(COc3cccc([C@@H](CC(=O)O)C4CC4)c3F)cc2[C@@H](OC)C(C)(C)C)c(F)cn1` (single isomer, unassigned) [Example 83.21] the same measures were 10 to 100 nM and below 10 nM.
For `COc1ccc(F)c(-c2ccc(COc3cccc([C@@H](CC(=O)O)C4CC4)c3F)cc2[C@@H](OC)C2(C)CC2)c1` (single isomer, unassigned) [Example 83.22], in that order: 10 to 100 nM and below 10 nM.
Take `COc1ccc(F)c(-c2c(F)cc(COc3cccc([C@@H](CC(=O)O)C4CC4)c3F)cc2[C@@H]2CCCC2(C)C)c1` (single isomer, unassigned) [Example 83.24]: the EC50 was in the range of 100 to 1000 nM on GPR40 [1] and 10 to 100 nM at GPR40 [2].
As to `CC1(C)CCC[C@@H]1c1cc(COc2cccc([C@@H](CC(=O)O)C3CC3)c2F)ccc1-c1cc(F)ccc1F` (single isomer, unassigned) [Example 83.25], the EC50 fell in the range of 100 to 1000 nM on GPR40 [1] and 10 to 100 nM at GPR40 [2].
For `COc1ccc(F)c(-c2ccc(COc3cccc([C@@H](CC(=O)O)C4CC4)c3F)cc2[C@H](OC)C(C)(C)OC)c1` (single isomer, unassigned) [Example 83.26], the EC50 fell in the range of 100 to 1000 nM on GPR40 [1] and 10 to 100 nM on GPR40 [2].
For `CO[C@H](c1cc(COc2cccc([C@@H](CC(=O)O)C3CC3)c2F)ccc1-c1cc(F)ccc1F)C(C)(C)C` (single isomer, unassigned) [Example 83.27] the same measures were 100 to 1000 nM and 10 to 100 nM.
For `CCc1cccc(-c2ccc(COc3cccc([C@@H](CC(=O)O)C4CC4)c3F)cc2[C@H]2CCCC2(C)C)c1` (single isomer, unassigned) [Example 83.28], in that order: 100 to 1000 nM and 10 to 100 nM.
For `COc1ccc(F)c(-c2ccc(COc3cccc(C(CC(=O)O)C4CC4)c3F)cc2CN2CCCCCC2)c1` (single isomer, unassigned) [Example 83.29, (3S)-3-(3-(((2-(1-Azepanylmethyl)-2′-fluoro-5′-(methyloxy)-1,1′-biphenyl-4-yl)methyl)oxy)-2-fluorophenyl)-3-cyclopropylpropanoic acid or (3R)-3-(3-(((2-(1-Azepanylmethyl)-2′-fluoro-5′-(methyloxy)-1,1′-biphenyl-4-yl)methyl)oxy)-2-fluorophenyl)-3-cyclopropylpropanoic acid] the same measures were 1000 to 10000 nM and 100 to 1000 nM.
On to `COc1cc(-c2cc(F)c(COc3cccc([C@@H](CC(=O)O)C4CC4)c3F)cc2[C@H]2CCCC2(C)C)c(F)cn1` (single isomer, unassigned) [Example 83.34], for which the EC50 is 10 to 100 nM at GPR40 [1] and below 10 nM on GPR40 [2].
For the compound `COc1ccc(F)c(-c2ccc(COc3cccc(C(CC(=O)O)CC4CC4)c3F)cc2C2CCCC2(C)C)c1` (single isomer, unassigned) [Example 84.1], the EC50 on GPR40 [1] was 100 to 1000 nM; at GPR40 [2], below 10 nM.
For the compound `COc1ccc(F)c(-c2ccc(COc3cccc(C(CC(=O)O)CC4CC4)c3F)cc2C(OC)C(C)(C)C)c1` (single isomer, unassigned) [Example 84.2], the EC50 was 100 to 1000 nM at GPR40 [1] and below 10 nM on GPR40 [2].
In the case of `COc1ccc(F)c(-c2ccc(COc3cccc(C(CC(=O)O)CC4CC4)c3F)cc2C2CCCC2(C)C)c1` (single isomer, unassigned) [Example 84.3], the values for the EC50 at GPR40 [1] and at GPR40 [2] were 100 to 1000 nM and below 10 nM, respectively.
For `COc1ccc(F)c(-c2cc(F)c(COc3cccc(C(CC(=O)O)CC4CC4)c3F)cc2C2CCCC2(C)C)c1` (single isomer, unassigned) [Example 84.4], in that order: 100 to 1000 nM and below 10 nM.
For `COc1ccc(F)c(-c2ccc(COc3cccc(C(CC(=O)O)CC4CC4)c3F)cc2C2=CCCC2(C)C)c1` (single isomer, unassigned) [Example 84.5, (3R)-4-Cyclopropyl-3-(3-(((2-(5,5-dimethyl-1-cyclopenten-1-yl)-2′-fluoro-5′-(methyloxy)-1,1′-biphenyl-4-yl)methyl)oxy)-2-fluorophenyl)butanoic acid or (3S)-4-cyclopropyl-3-(3-(((2-(5,5-dimethyl-1-cyclopenten-1-yl)-2′-fluoro-5′-(methyloxy)-1,1′-biphenyl-4-yl)methyl)oxy)-2-fluorophenyl)butanoic acid] the same measures were 100 to 1000 nM and 10 to 100 nM.
Consider `COc1ccc(F)c(-c2ccc(COc3cccc(C(CC(=O)O)CC4CC4)c3F)cc2C2CCCCC2(C)C)c1` (single isomer, unassigned) [Example 84.6], for which the EC50 at GPR40 [1] is 100 to 1000 nM; at GPR40 [2], below 10 nM.
